Patent US12570659B2, “Bicyclic heteroaryl compounds useful as IRAK4 inhibitors” (BRISTOL-MYERS SQUIBB COMPANY, priority 2019, dated 2026)

Tests used:
[1] = biological target: IRAK4 (Homo sapiens (Human), UniProt Q9NWZ3); test: IRAK4 Inhibition Assay; format: biochemical; settings: ATP 500 μM; IRAK4 0.6 nM; 60 min room temperature
In short: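 Phosphorylated and unphosphorylated fluorescent substrate were resolved by microfluidic electrophoresis after termination with 35 mM EDTA. The room-temperature kinase reaction lasted 60 min after IRAK4, substrates and test compound were combined; vehicle-only defined 0% and no-enzyme 100% inhibition.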

[2] = test system: TLR2 agonist-stimulated IL-6 in human whole blood; test: IRAK4 Whole Blood Assay; format: cell-based; settings: lipoteichoic acid 10 μg/mL, 5 hours, IL-6 levels
Experimental: Human whole blood containing the anti-coagulant ACD-A was plated in 384-well plate (25 μL/well) and incubated with compounds for 60 minutes at 37° C. in a 5% CO2 incubator. The blood was stimulated with a TLR2 agonist, 10 μg/mL final concentration of lipoteichoic acid (Invivogen, San Diego, CA) in 25 μL RPMI (Gibco) for 5 hours in a 5% CO2 incubator. At the end of the incubation, plates were centrifuged at 2300 rpm for 5 minutes. Supernatants were harvested and analyzed for IL-6 levels by Flow Cytometry beads assay (BD Biosciences, San Jose, CA).

[3] = biological target: JAK3 kinase (Homo sapiens (Human), UniProt P52333); test: JAK3 Homogeneous Time Resolved Fluorescence (HTRF) Assay; format: binding; settings: for IC50: competition binding with fluorescein-labeled ATP competitive probe; for Ratio of JAK3 IC50 to IRAK4 IC50: selectivity for IRAK4 over JAK3
Chain of JAK3 kinase (P52333 whole entry): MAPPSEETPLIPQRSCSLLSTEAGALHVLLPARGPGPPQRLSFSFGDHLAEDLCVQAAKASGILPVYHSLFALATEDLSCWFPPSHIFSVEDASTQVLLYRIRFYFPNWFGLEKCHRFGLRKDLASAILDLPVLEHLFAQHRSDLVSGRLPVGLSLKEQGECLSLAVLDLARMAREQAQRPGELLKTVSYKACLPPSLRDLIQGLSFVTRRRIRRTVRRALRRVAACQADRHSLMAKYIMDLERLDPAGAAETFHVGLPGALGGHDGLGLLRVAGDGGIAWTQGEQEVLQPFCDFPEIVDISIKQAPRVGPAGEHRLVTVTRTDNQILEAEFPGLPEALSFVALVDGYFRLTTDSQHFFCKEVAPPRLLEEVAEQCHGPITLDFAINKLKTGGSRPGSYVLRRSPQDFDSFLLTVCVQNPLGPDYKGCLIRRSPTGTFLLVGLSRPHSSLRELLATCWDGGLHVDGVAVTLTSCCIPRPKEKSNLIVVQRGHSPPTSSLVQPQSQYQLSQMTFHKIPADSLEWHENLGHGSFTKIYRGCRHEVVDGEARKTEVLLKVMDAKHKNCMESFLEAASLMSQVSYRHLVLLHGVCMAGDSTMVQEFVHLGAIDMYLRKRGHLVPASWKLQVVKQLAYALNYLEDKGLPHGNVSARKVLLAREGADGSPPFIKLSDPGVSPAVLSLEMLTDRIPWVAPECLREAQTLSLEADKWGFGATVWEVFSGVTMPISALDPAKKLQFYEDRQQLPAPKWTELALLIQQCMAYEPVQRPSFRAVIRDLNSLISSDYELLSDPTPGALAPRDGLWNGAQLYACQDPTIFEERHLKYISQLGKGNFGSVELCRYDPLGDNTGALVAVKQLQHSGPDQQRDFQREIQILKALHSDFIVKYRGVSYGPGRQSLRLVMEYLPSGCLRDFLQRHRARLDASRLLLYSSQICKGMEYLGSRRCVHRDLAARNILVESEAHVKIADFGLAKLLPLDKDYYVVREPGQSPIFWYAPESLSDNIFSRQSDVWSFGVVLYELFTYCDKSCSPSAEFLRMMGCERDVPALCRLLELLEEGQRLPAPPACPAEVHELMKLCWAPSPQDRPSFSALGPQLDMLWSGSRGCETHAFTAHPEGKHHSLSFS
In short: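 IC50 reflects displacement of a fluorescein-labeled ATP-site probe (at its Kd) from 1 nM tagged JAK3, detected via 0.2 nM Tb anti-His or anti-GST antibody. One-hour incubation; 495 and 520 nm emission ratios, background-subtracted, normalized to maximum signal; 11-point percent inhibition, 4-parameter logistic.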

Chain of IRAK4 (Q9NWZ3 whole entry, species assumed): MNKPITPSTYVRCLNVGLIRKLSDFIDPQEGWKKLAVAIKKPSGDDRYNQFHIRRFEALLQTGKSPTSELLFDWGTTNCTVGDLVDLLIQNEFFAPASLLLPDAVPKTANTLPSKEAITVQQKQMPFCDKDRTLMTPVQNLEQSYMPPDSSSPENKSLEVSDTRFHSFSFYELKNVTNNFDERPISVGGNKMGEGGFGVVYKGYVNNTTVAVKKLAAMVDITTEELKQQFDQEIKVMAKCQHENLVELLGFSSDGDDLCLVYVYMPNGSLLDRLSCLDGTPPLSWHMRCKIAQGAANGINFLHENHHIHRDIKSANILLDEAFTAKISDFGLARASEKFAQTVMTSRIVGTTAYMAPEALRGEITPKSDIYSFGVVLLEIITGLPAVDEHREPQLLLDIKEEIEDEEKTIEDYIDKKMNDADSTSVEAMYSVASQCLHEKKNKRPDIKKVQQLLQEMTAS

| Compound | IC50 [1] [nM] | IC50 [2] [nM] | IC50 [3] [nM] | Ratio of JAK3 IC50 to IRAK4 IC50 [3] |
| --- | --- | --- | --- | --- |
| CC(=O)N[C@H]1CC[C@H](NC(=O)c2cnn3cc(-c4ccc(C#N)cc4)cc3c2NC(C)C)CC1 [Example 81, N-((1r,4r)-4-acetamidocyclohexyl)-6-(4-cyanophenyl)-4-(isopropylamino)pyrrolo[1,2-b]pyridazine-3-carboxamide] | 12 | > 20000 | > 50000 | >4167 |
| CC(=O)N[C@H]1CC[C@H](NC(=O)c2cnn3cc(-c4ccncc4C)cc3c2NC(C)C)CC1 [Example 56, N-((1r,4r)-4-acetamidocyclohexyl)-4-(isopropylamino)-6-(3-methylpyridin-4-yl)pyrrolo[1,2-b]pyridazine-3-carboxamide] | 1.6 | 810 | > 50000 | >31250 |
| COC(=O)N[C@H]1CC[C@H](NC(=O)c2cnn3cc(-c4cccnc4)cc3c2NC(C)C)CC1 [Example 49, methyl ((1r,4r)-4-(4-(isopropylamino)-6-(pyridin-3-yl)pyrrolo[1,2-b]pyridazine-3-carboxamido)cyclohexyl)carbamate] | 11.3 | > 10000 | > 50000 | >4425 |
| CC(C)Nc1c(C(=O)NC2CCN(S(C)(=O)=O)CC2)cnn2cc(-c3ccc(F)nc3)cc12 [Example 85, 6-(6-fluoropyridin-3-yl)-4-(isopropylamino)-N-(1-(methylsulfonyl)piperidin-4-yl)pyrrolo[1,2-b]pyridazine-3-carboxamide] | 2.5 | 870 | ~31000 | ~12400 |
| CC(C)Nc1c(C(=O)NCCN2CCOCC2)cnn2cc(-c3ccncc3)cc12 [Example 63, 4-(isopropylamino)-N-(2-morpholinoethyl)-6-(pyridin-4-yl) pyrrolo[1,2-b]pyridazine-3-carboxamide] | 12 | 2000 | > 50000 | >4167 |
| Cc1cc(F)ncc1-c1cc2c(NC(C)C)c(C(=O)N[C@H]3CC[C@H](c4nc[nH]n4)CC3)cnn2c1 [Example 91, N-((1r,4r)-4-(1H-1,2,4-triazol-3-yl)cyclohexyl)-6-(6-fluoro-4-methylpyridin-3-yl)-4-(isopropylamino)pyrrolo[1,2-b]pyridazine-3-carboxamide] | 5.2 | 1460 | > 50000 | >9615 |
| CNC(=O)[C@H]1CC[C@H](NC(=O)c2cnn3cc(-c4ccncc4F)cc3c2NC(C)C)CC1 [Example 87, 6-(3-fluoropyridin-4-yl)-4-(isopropylamino)-N-((1r,4r)-4-(methylcarbamoyl)cyclohexyl) pyrrolo[1,2-b]pyridazine-3-carboxamide] | 3.1 | 260 | > 50000 | >16129 |
| CC(C)Nc1c(C(=O)NCCN2CCOCC2)cnn2cc(-c3ccncc3F)cc12 [Example 71, 6-(3-fluoropyridin-4-yl)-4-(isopropylamino)-N-(2-morpholinoethyl)pyrrolo[1,2-b]pyridazine-3-carboxamide] | 7.2 | > 10000 | 7000 | 972 |
| CC(C)Nc1c(C(=O)NC[C@@H](F)C(C)(C)O)cnn2cc(-c3cncs3)cc12 [Example 55, (R)—N-(2-fluoro-3-hydroxy-3-methylbutyl)-4-(isopropylamino)-6-(thiazol-5-yl)pyrrolo[1,2-b]pyridazine-3-carboxamide] | 3.9 | > 10000 | > 50000 | >12821 |
| CC(=O)N[C@H]1CC[C@H](NC(=O)c2cnn3cc(-c4cnccc4C)cc3c2NC(C)C)CC1 [Example 70, N-((1r,4r)-4-acetamidocyclohexyl)-4-(isopropylamino)-6-(4-methylpyridin-3-yl)pyrrolo[1,2-b] pyridazine-3-carboxamide] | 14 | > 10000 | > 50000 | >3571 |
| CC(C)Nc1c(C(=O)N[C@H]2CC[C@H](N)CC2)cnn2cc(-c3ccncc3)cc12 [Example 54, N-((1r,4r)-4-aminocyclohexyl)-4-(isopropylamino)-6-(pyridin-4-yl)pyrrolo[1,2-b]pyridazine-3-carboxamide] | 9.1 | 1220 | > 50000 | >5495 |
| CC(=O)N[C@H]1CC[C@H](NC(=O)c2cnn3cc(-c4ccncc4F)cc3c2NC(C)C)CC1 [Example 65, N-((1r,4r)-4-acetamidocyclohexyl)-6-(3-fluoropyridin-4-yl)-4-(isopropylamino)pyrrolo[1,2-b] pyridazine-3-carboxamide] | 1.6 | 360 | > 50000 | >31250 |
| CC(C)Nc1c(C(=O)N[C@H]2CC[C@H](c3nc[nH]n3)CC2)cnn2cc(-c3ccc(F)nc3)cc12 [Example 92, N-((1r,4r)-4-(1H-1,2,4-triazol-3-yl)cyclohexyl)-6-(6-fluoropyridin-3-yl)-4-(isopropylamino)pyrrolo[1,2-b]pyridazine-3-carboxamide] | 10 | 6970 | > 50000 | >5000 |
| CC(=O)N[C@H]1CC[C@H](NC(=O)c2cnn3c(Cl)c(-c4ccncc4)cc3c2NC(C)C)CC1 [Example 80, N-((1r,4r)-4-acetamidocyclohexyl)-7-chloro-4-(isopropylamino)-6-(pyridin-4-yl)pyrrolo[1,2-b]pyridazine-3-carboxamide] | 2 | 720 | ~35000 | ~17500 |
| CC(=O)N[C@H]1CC[C@H](NC(=O)c2cnn3cc(-c4cccnc4)cc3c2NC(C)C)CC1 [Example 48, N-((1r,4r)-4-acetamidocyclohexyl)-4-(isopropylamino)-6-(pyridin-3-yl)pyrrolo[1,2-b]pyridazine-3-carboxamide] | 5.9 | 850 | > 50000 | >8475 |
| CC(C)Nc1c(C(=O)NC[C@@H](F)C(C)(C)O)cnn2cc(-c3ccncc3)cc12 [Example 5, (R)—N-(2-fluoro-3-hydroxy-3-methylbutyl)-4-(isopropylamino)-6-(pyridin-4-yl)pyrrolo[1,2-b]pyridazine-3-carboxamide] | 9.2 | 4600 | 29000 | 3152 |
| CC(C)Nc1c(C(=O)NC[C@@H](F)C(C)(C)O)cnn2cc(-c3cccnc3)cc12 [Example 3, (R)—N-(2-fluoro-3-hydroxy-3-methylbutyl)-4-(isopropylamino)-6-(pyridin-3-yl)pyrrolo[1,2-b]pyridazine-3-carboxamide] | 16 | 9500 | 31000 | 1938 |
| CC(C)CCNC(=O)c1cnn2cc(-c3ccncc3)cc2c1NC(C)C [Example 64, N-isopentyl-4-(isopropylamino)-6-(pyridin-4-yl)pyrrolo[1,2-b]pyridazine-3-carboxamide] | 14 | 8910 | ~29000 | ~2071 |
| CC(=O)N[C@H]1CC[C@H](NC(=O)c2cnn3cc(-c4cccnc4F)cc3c2NC(C)C)CC1 [Example 69, N-((1r,4r)-4-acetamidocyclohexyl)-6-(2-fluoropyridin-3-yl)-4-(isopropylamino)pyrrolo[1,2-b]pyridazine-3-carboxamide] | 9.2 | 7010 | ~42000 | ~4565 |
